Measurements: patent US8133851B2, “Heteroaroyl-substituted serine amides” (BASF SE, priority 2007, dated 2012)

melting point: 190 °C
Compound: CNC(=O)C(NC(=O)c1cn(C)nc1C(F)(F)F)C1(OC(=O)N(C)C)CCC1 (stereo not shown) [Example 1, Dimethylcarbamic acid 1-{methylcarbamoyl-[(1-methyl-3-trifluoromethyl-1H-pyrazole-4-carbonyl)amino]methyl}cyclobutyl ester]
